The numbers were not newly measured in patent US6335036B1, “Granular pharmaceutical preparation of ebselen” (Daiichi Pharmaceutical Co., Ltd., priority 1996, dated 2002), which cites them from elsewhere.

For the series the following is noted: known property, background art.

Regarding `O=c1c2ccccc2[se]n1-c1ccccc1` [Ebselen, 2-phenyl-1,2-benzisoselenazol-3(2H)-one], the Solubility in water result is “slightly soluble in water”.
